Laboratory results from article PMC11766267 (International Journal of Molecular Sciences, 2025).
Where “and” joins values, the source holds several entries; their conditions need not be identical. Identical values can stand only once. Like-named read-outs stand apart in the source and are kept apart here.

What was measured:
HCT-116 = test: MTT cytotoxicity assay, HCT-116; assay type: cell-based; conditions: Homo sapiens, 24 h treatment, mean ± SD of triplicate
Procedure, shortened: (§1)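 Formazan produced from MTT by the cells was taken up in dimethyl sulfoxide for measurement.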

MDA-MB-231 = test: MTT cytotoxicity assay, MDA-MB-231; assay type: cell-based; conditions: Homo sapiens, 24 h treatment, mean ± SD of triplicate
Procedure, shortened: as §1

HeLa = test: MTT cytotoxicity assay, HeLa; assay type: cell-based; conditions: Homo sapiens, 24 h treatment, mean ± SD of triplicate
Procedure, shortened: as §1

MCF-7 [1] = test: MTT cytotoxicity assay, MCF-7; assay type: cell-based, human; conditions: Homo sapiens, MCF7, 24 h, 24 h treatment, mean ± SD of triplicate
Procedure, shortened: as §1

[2] = MTT cytotoxicity assay, normal cell line WI-38; assay type: cell-based, human; conditions: human, WI-38 cells (normal human lung fibroblasts), normal (non-cancer) cell line, 24 h treatment
Procedure, shortened: as §1

[3] = system: HCT-116, MDA-MB-231, HeLa, and MCF-7; test: MTT cytotoxicity assay, ranges stated over several cell lines; assay type: cell-based; conditions: Homo sapiens, range over the compounds named
Procedure, shortened: as §1

[4] = target: T1, aromatase (CYP19A, EC 1.14.14.14) (Homo sapiens, UniProt P11511); test: biochemical
T1 construct: Microsomal samples were isolated from tissue using the Microsome Isolation Kit; tissue BioVision K983-100; host or cells: microsomes from an unnamed tissue
T1 sequence (P11511 1-503): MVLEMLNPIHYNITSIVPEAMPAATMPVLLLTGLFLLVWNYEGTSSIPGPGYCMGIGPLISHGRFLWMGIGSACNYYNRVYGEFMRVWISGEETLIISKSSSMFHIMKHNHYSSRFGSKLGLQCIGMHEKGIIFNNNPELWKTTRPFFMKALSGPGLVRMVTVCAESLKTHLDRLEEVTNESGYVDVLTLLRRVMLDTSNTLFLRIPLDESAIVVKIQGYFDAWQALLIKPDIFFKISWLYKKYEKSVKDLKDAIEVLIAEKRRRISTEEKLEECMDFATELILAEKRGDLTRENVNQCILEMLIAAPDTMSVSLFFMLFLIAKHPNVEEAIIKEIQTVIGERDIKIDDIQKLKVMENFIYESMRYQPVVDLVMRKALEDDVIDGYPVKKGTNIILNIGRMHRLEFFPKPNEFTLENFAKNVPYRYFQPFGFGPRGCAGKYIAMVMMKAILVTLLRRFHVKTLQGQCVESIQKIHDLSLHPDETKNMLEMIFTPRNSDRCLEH

MCF-7 [5] = test: In vitro anti-estrogenic activity assay, MCF-7
MCF-7a = test: In vitro anti-estrogenic activity assay, MCF-7a
EGFR = EGFR (Homo sapiens, UniProt P00533); test: In vitro protein kinase inhibition assay (ELISA kit), EGFR
Chain of EGFR (P00533 25-1210): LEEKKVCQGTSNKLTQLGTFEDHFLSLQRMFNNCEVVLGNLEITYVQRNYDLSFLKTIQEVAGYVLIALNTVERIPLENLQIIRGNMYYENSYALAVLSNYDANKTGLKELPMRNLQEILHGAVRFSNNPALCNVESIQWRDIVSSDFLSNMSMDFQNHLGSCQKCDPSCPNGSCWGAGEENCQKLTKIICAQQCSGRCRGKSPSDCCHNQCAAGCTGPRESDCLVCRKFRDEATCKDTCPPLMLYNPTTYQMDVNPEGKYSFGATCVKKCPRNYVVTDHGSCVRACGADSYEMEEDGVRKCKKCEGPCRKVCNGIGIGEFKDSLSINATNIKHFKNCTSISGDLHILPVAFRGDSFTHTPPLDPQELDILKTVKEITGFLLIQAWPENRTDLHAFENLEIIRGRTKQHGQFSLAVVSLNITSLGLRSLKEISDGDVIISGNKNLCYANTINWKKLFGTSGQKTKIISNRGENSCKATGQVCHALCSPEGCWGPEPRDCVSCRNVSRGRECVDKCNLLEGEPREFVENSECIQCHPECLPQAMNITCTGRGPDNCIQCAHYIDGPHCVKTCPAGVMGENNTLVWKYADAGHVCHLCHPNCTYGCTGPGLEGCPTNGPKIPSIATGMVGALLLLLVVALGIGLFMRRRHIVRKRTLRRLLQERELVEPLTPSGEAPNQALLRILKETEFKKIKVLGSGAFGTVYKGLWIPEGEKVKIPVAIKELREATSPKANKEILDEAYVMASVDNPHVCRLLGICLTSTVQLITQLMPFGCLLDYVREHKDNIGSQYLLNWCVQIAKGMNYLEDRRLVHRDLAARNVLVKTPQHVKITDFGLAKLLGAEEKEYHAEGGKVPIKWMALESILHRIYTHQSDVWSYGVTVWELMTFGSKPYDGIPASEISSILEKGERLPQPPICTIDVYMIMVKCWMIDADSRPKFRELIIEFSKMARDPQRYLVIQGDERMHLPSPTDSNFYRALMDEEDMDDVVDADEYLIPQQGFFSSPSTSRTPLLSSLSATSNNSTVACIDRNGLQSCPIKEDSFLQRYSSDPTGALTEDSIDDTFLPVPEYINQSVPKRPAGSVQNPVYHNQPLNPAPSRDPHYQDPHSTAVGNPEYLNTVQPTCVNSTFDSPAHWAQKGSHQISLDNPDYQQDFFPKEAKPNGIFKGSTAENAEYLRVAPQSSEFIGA

HER2 = HER2 (Homo sapiens, UniProt P04626); test: In vitro protein kinase inhibition assay (ELISA kit), HER2
Chain of HER2 (P04626 23-1255): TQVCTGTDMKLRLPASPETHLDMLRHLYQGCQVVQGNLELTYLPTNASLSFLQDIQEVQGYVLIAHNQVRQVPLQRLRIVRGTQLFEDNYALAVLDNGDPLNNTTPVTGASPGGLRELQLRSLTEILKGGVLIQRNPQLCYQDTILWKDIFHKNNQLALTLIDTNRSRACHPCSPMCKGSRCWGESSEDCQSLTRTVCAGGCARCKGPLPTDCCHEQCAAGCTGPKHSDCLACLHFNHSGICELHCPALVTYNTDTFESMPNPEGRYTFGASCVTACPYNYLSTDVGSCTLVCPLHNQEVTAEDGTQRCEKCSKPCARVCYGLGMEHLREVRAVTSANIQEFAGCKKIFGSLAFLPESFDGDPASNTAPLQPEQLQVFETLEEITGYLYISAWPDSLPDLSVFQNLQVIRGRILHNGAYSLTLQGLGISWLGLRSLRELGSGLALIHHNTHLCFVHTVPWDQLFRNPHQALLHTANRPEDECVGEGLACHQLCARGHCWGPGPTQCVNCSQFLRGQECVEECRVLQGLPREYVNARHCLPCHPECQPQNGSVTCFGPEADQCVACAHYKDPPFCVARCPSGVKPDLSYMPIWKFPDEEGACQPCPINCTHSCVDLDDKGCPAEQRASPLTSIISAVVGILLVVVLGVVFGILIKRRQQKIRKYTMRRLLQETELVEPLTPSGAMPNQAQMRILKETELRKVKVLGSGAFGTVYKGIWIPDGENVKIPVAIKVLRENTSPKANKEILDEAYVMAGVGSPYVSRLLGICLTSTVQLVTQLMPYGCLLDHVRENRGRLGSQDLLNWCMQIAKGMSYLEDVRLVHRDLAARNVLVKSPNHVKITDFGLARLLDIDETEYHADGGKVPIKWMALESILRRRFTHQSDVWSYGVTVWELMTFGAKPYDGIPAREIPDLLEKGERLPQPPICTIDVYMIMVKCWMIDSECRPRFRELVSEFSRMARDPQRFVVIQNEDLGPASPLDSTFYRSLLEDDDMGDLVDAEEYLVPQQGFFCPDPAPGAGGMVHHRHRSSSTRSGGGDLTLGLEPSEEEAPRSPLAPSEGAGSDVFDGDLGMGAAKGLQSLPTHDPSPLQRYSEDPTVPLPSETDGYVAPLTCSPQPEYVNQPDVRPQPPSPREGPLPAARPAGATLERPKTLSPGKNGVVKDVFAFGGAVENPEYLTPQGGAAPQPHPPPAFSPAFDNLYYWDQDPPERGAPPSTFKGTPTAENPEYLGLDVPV

CDK2 = CDK2 (Homo sapiens, UniProt P24941); test: In vitro protein kinase inhibition assay (ELISA kit), CDK2
VEGFR-2 = VEGFR-2 (Homo sapiens, UniProt P35968); test: In vitro protein kinase inhibition assay (ELISA kit), VEGFR-2
Chain of VEGFR-2 (P35968 20-1356): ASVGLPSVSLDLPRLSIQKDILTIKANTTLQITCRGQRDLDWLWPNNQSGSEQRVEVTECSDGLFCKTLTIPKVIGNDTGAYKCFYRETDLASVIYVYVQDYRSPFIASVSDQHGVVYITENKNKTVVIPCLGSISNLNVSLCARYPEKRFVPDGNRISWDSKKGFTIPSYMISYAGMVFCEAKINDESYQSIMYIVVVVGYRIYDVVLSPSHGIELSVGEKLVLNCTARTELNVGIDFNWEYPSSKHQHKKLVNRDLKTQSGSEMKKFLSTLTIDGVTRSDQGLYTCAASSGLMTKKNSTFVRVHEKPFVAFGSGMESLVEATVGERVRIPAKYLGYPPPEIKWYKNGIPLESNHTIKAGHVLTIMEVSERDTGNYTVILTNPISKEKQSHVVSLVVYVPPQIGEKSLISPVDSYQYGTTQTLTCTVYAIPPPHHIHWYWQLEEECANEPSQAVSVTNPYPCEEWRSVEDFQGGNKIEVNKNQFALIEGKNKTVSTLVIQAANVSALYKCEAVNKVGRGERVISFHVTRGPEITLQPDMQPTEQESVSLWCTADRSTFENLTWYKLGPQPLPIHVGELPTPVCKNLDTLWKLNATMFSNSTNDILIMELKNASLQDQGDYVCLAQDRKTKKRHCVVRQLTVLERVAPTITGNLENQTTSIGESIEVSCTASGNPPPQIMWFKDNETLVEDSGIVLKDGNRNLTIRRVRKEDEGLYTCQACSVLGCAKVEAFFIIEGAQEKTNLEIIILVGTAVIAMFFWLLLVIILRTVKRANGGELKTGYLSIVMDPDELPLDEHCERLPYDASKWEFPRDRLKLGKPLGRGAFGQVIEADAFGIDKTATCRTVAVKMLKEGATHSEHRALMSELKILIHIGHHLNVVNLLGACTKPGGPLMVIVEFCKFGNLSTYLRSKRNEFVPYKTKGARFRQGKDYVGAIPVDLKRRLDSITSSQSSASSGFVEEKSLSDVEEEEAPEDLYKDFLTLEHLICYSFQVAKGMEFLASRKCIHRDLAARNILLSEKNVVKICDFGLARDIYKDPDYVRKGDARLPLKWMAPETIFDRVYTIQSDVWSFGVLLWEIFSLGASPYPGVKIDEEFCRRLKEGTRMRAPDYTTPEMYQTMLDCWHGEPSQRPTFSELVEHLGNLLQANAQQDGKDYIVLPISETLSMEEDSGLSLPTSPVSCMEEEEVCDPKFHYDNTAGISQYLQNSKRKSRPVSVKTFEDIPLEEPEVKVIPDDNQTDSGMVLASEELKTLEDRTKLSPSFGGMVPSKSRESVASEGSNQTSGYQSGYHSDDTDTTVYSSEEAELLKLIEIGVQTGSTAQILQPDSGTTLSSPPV

[6] = cell count relative to the control (17β-E2)

COc1cccc(C(=O)/C=C/c2ccc(OCc3ccccc3)cc2)c1 [Compound 4q, (E)-3-(4-(Benzyloxy)phenyl)-1-(3-methoxyphenyl)prop-2-en-1-one]
IC50 (HCT-116): 17.1 ± 1.3 µM | IC50 (MDA-MB-231): 13.6 ± 1.1 µM | IC50 (HeLa): 22.6 ± 1.7 µM | IC50 (MCF-7 [1]): 11.6 ± 0.9 µM | IC50 at 24 h [2]: > 100 µM | IC50 ([3]; HCT-116 and HeLa, read-out: IC50 values, range against HCT-116 and HeLa): 6590 to 22600 nM | IC50 ([3]; MDA-MB-231 and MCF-7, read-out: IC50 values, range against MDA-MB-231 and MCF-7): 2080 to 13600 nM | Inhibition (%) Aromatase ([4]; 0.01 µM, individual Data 1-3): 6.6% and 8.9% | Inhibition (%) Aromatase ([4]; 0.1 µM, individual Data 1-3): 17.9% and 20.7% | Inhibition (%) Aromatase ([4]; 1 µM, individual Data 1-3): 54% and 53.8% | Inhibition (%) Aromatase ([4]; 10 µM, individual Data 1-3): 81.5% and 83.9% | Inhibition (%) Aromatase ([4]; 100 µM, individual Data 1-3): 91.6% and 93.8% | IC50 ([4]; mean ± SD of triplicate, approximate values, read-out: Aromatase Inhibition IC50): 901 nM and 801 nM | inhibition at 0.01 µM ([4]; read-out: Inhibition (%) Aromatase, 0.01 µM, individual Data 1-3): 7.8% | inhibition at 0.1 µM ([4]; read-out: Inhibition (%) Aromatase, 0.1 µM, individual Data 1-3): 19% | inhibition at 1 µM ([4]; read-out: Inhibition (%) Aromatase, 1 µM, individual Data 1-3): 55.9% | inhibition at 10 µM ([4]; read-out: Inhibition (%) Aromatase, 10 µM, individual Data 1-3): 82% | inhibition at 100 µM ([4]; read-out: Inhibition (%) Aromatase, 100 µM, individual Data 1-3): 92% | Cell Proliferation MCF-7 % (MCF-7 [5]; [6]): 37% | Cell Proliferation MCF-7 Cell Count (MCF-7 [5]; mean ± SD of triplicate): 6874 ± 245 | Reduction of growth/cell count (inhibition) in MCF-7 (MCF-7 [5]; relative to control): 63% | Cell Proliferation MCF-7a % (MCF-7a; [6]): 99% | Cell Proliferation MCF-7a Cell Count (MCF-7a; mean ± SD of triplicate): 20,630 ± 595 | Inhibition in MCF-7a (MCF-7a; relative to control): 1% | IC50 (EGFR): 151 ± 5 nM | Inhibition (%) EGFR (EGFR; 0.01 µM, individual Data 1-3): 22.9% and 24.2% | Inhibition (%) EGFR (EGFR; 0.1 µM, individual Data 1-3): 45.2% and 47.5% | Inhibition (%) EGFR (EGFR; 1 µM, individual Data 1-3): 71.9% and 70.2% | Inhibition (%) EGFR (EGFR; 10 µM, individual Data 1-3): 86.9% and 90% | Inhibition (%) EGFR (EGFR; 100 µM, individual Data 1-3): 95.6% and 97.9% | inhibition at 0.01 µM (EGFR; read-out: Inhibition (%) EGFR, 0.01 µM, individual Data 1-3): 23.4% | inhibition at 0.1 µM (EGFR; read-out: Inhibition (%) EGFR, 0.1 µM, individual Data 1-3): 46.8% | inhibition at 1 µM (EGFR; read-out: Inhibition (%) EGFR, 1 µM, individual Data 1-3): 72% | inhibition at 10 µM (EGFR; read-out: Inhibition (%) EGFR, 10 µM, individual Data 1-3): 88.4% | inhibition at 100 µM (EGFR; read-out: Inhibition (%) EGFR, 100 µM, individual Data 1-3): 96.3% | IC50 (HER2): ~144 nM | Inhibition (%) Her2 (HER2; 0.01 µM, individual Data 1-3): 25% and 25.9% | Inhibition (%) Her2 (HER2; 0.1 µM, individual Data 1-3): 47.70% and 48.76% | Inhibition (%) Her2 (HER2; 1 µM, individual Data 1-3): 68.30% and 69.5% | Inhibition (%) Her2 (HER2; 10 µM, individual Data 1-3): 86.89% and 87.78% | Inhibition (%) Her2 (HER2; 100 µM, individual Data 1-3): 95.7% and 96.9% | inhibition at 0.1 µM (HER2; read-out: Inhibition % at 0.1 µM HER2, 0.1 µM, the data between the highest and lowest values): 48% | inhibition at 0.01 µM (HER2; read-out: Inhibition (%) Her2, 0.01 µM, individual Data 1-3): 25.6% | inhibition at 0.1 µM (HER2; read-out: Inhibition (%) Her2, 0.1 µM, individual Data 1-3): 48% | inhibition at 1 µM (HER2; read-out: Inhibition (%) Her2, 1 µM, individual Data 1-3): 68.9% | inhibition at 10 µM (HER2; read-out: Inhibition (%) Her2, 10 µM, individual Data 1-3): 87.3% | inhibition at 100 µM (HER2; read-out: Inhibition (%) Her2, 100 µM, individual Data 1-3): 96.2% | IC50 (CDK2): ~170 nM | Inhibition (%) CDK2 (CDK2; 0.01 µM, individual Data 1-3): 24.8% and 25.2% | Inhibition (%) CDK2 (CDK2; 0.1 µM, individual Data 1-3): 41.7% and 42.2% | Inhibition (%) CDK2 (CDK2; 1 µM, individual Data 1-3): 70.9% and 71.2% | Inhibition (%) CDK2 (CDK2; 10 µM, individual Data 1-3): 87.8% and 88.3% | Inhibition (%) CDK2 (CDK2; 100 µM, individual Data 1-3): 96% and 96.6% | inhibition at 0.1 µM (CDK2; read-out: Inhibition % at 0.1 µM CDK2, 0.1 µM, the data between the highest and lowest values): 41.9% | inhibition at 0.01 µM (CDK2; read-out: Inhibition (%) CDK2, 0.01 µM, individual Data 1-3): 25.1% | inhibition at 0.1 µM (CDK2; read-out: Inhibition (%) CDK2, 0.1 µM, individual Data 1-3): 41.9% | inhibition at 1 µM (CDK2; read-out: Inhibition (%) CDK2, 1 µM, individual Data 1-3): 71.1% | inhibition at 10 µM (CDK2; read-out: Inhibition (%) CDK2, 10 µM, individual Data 1-3): 88.1% | inhibition at 100 µM (CDK2; read-out: Inhibition (%) CDK2, 100 µM, individual Data 1-3): 96.3% | IC50 (VEGFR-2): 287 ± 10 nM | Inhibition (%) VEGFR2 (VEGFR-2; 0.01 µM, individual Data 1-3): 16.9% | Inhibition (%) VEGFR2 (VEGFR-2; 0.1 µM, individual Data 1-3): 38.9% and 39.1% | Inhibition (%) VEGFR2 (VEGFR-2; 1 µM, individual Data 1-3): 66.7% and 66.4% | Inhibition (%) VEGFR2 (VEGFR-2; 10 µM, individual Data 1-3): 87.1% and 87.6% | Inhibition (%) VEGFR2 (VEGFR-2; 100 µM, individual Data 1-3): 95.4% and 95.9% | inhibition at 0.01 µM (VEGFR-2; read-out: Inhibition (%) VEGFR2, 0.01 µM, individual Data 1-3): 17% | inhibition at 0.1 µM (VEGFR-2; read-out: Inhibition (%) VEGFR2, 0.1 µM, individual Data 1-3): 39% | inhibition at 1 µM (VEGFR-2; read-out: Inhibition (%) VEGFR2, 1 µM, individual Data 1-3): 66.8% | inhibition at 10 µM (VEGFR-2; read-out: Inhibition (%) VEGFR2, 10 µM, individual Data 1-3): 87.3% | inhibition at 100 µM (VEGFR-2; read-out: Inhibition (%) VEGFR2, 100 µM, individual Data 1-3): 95.7%
